Measurements reported in PMC12155096 (International Journal of Molecular Sciences, 2025).
Structures can show the parent of a compound that is named as a salt. Where two headings read alike, the source gives them in different places.

Assays:
[1] = target: Photinus pyralis (firefly) luciferase (Photinus pyralis, UniProt P08659); assay: biochemical; format: biochemical
human CYP1A2 [2] = target: T1, human CYP1A2 (Homo sapiens, UniProt P05177)
T1 sequence (P05177 1-516): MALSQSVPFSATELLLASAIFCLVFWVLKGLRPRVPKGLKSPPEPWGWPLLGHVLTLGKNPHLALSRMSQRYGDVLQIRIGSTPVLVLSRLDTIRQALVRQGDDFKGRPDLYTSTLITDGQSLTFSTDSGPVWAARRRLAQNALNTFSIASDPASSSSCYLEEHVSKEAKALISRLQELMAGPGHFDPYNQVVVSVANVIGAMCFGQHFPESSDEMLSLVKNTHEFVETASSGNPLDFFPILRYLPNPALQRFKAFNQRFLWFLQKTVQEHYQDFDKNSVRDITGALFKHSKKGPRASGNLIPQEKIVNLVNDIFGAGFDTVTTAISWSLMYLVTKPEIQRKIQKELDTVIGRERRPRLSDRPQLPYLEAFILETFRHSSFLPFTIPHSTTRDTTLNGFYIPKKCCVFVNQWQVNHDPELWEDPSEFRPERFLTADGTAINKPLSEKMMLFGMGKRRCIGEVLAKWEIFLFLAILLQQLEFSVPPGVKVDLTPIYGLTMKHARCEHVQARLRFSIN

human CYP2C9 [3] = target: T2, human CYP2C9 (Homo sapiens, UniProt P11712)
human CYP2C19 [4] = target: T3, human CYP2C19 (Homo sapiens, UniProt P33261)
CYP3A4 = CYP3A4 (Homo sapiens, UniProt P08684)
human CYP2D6 = human CYP2D6 (Homo sapiens, UniProt P10635); assay: biochemical
human CYP2C19 [5] = target: T3, human CYP2C19; assay: biochemical
human CYP1A2 [6] = target: T1, human CYP1A2; assay: biochemical
human CYP2C9 [7] = target: T2, human CYP2C9; assay: biochemical
[8] = CYP2D6 IC50 (half-maximal inhibitory concentration)
[9] = CYP2C19 IC50 (half-maximal inhibitory concentration)
[10] = CYP1A2 IC50 (half-maximal inhibitory concentration)

T2 sequence (P11712 whole entry): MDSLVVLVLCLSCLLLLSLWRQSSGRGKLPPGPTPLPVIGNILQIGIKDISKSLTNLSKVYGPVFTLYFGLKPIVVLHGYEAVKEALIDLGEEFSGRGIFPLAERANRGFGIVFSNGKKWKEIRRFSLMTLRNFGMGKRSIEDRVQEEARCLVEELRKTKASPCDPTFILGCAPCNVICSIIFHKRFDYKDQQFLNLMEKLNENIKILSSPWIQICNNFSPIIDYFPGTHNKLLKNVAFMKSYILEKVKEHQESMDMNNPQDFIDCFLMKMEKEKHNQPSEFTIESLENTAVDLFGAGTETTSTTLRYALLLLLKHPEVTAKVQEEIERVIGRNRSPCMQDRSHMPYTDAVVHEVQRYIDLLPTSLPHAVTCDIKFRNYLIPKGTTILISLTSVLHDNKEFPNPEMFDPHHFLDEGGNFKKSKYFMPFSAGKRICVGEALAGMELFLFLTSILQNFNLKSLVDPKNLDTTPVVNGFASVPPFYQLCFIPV
Chain of human CYP2D6 (P10635 whole entry): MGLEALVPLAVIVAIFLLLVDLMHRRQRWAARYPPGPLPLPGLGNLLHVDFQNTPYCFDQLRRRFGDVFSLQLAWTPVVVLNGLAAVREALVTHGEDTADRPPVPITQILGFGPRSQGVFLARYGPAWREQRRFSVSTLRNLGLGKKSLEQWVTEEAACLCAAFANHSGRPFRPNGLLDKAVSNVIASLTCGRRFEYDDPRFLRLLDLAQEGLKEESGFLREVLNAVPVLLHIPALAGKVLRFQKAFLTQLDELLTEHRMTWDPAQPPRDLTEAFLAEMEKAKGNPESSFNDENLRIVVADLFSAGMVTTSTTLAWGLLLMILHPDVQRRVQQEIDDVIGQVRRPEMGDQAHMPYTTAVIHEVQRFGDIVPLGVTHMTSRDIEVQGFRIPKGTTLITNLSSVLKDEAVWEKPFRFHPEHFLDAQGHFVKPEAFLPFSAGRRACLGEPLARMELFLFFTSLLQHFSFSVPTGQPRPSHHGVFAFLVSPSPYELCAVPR
Chain of Photinus pyralis (firefly) luciferase (P08659 whole entry): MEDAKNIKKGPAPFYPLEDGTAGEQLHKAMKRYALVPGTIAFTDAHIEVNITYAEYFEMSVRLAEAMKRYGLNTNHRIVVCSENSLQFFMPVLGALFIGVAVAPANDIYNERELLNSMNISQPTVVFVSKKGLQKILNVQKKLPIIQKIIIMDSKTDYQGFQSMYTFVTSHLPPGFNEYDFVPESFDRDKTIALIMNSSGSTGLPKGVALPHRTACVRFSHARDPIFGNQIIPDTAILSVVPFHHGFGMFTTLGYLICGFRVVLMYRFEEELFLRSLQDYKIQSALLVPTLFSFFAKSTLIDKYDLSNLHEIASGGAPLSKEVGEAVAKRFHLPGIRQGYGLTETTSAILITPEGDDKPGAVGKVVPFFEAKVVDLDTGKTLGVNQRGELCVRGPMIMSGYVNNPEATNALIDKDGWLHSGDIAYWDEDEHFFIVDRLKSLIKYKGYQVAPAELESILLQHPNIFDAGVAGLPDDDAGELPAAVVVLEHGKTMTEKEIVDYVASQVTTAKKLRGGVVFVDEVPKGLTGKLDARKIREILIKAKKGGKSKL
Chain of CYP3A4 (P08684 whole entry): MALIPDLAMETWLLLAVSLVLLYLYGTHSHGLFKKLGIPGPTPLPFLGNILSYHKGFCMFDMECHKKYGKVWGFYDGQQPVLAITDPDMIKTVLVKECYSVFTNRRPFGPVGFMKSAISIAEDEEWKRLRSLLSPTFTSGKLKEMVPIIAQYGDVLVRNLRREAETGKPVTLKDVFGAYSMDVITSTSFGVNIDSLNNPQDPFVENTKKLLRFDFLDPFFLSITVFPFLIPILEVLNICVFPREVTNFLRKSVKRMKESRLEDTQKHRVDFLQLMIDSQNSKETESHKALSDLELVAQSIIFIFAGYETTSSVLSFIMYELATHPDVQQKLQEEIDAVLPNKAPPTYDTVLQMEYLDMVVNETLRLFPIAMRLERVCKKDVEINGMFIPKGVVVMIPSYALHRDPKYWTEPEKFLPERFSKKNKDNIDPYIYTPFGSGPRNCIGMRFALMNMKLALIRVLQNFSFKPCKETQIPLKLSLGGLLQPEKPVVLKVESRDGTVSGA
T3 sequence (P33261 whole entry): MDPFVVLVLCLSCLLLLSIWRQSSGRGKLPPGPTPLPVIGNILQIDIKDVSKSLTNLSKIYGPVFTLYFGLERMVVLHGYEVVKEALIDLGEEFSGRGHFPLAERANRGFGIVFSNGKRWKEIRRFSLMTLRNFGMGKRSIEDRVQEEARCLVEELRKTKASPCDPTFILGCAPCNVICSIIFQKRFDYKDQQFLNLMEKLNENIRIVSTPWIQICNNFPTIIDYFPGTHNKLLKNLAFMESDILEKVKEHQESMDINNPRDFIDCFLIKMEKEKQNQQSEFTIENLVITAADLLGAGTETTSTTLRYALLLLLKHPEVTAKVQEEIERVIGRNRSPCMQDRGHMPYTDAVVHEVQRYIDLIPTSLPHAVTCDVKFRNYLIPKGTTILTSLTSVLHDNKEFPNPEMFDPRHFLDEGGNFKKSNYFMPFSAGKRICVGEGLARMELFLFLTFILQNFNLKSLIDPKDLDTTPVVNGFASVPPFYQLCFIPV

Row | Compound | Luciferase IC50 (half-maximal inhibitory concentration) [1] | CYP3A4 IC50 (half-maximal inhibitory concentration) (CYP3A4) | IC50 (human CYP2D6; [8]) | Luciferase IC50 [1] | CYP2C9 IC50 (human CYP2C9 [3]) | IC50 (human CYP2D6; CYP2D6 IC50) | CYP2C19 IC50 (human CYP2C19 [4]) | CYP3A4 IC50 (CYP3A4) | also measured
1 | CN1CCCCC1CCN1c2ccccc2Sc2ccc([S+](C)[O-])cc21 (stereo not shown) [Mesoridazine] | Inactive | Inactive | 0.09 µM | – | – | – | – | – | CYP1A2 IC50 (half-maximal inhibitory concentration) (human CYP1A2 [2]): Inactive; CYP2C9 IC50 (half-maximal inhibitory concentration) (human CYP2C9 [3]): Inactive; CYP2C19 IC50 (half-maximal inhibitory concentration) (human CYP2C19 [4]): Inactive
2 | CN1CCCC(CC2c3ccccc3Sc3ccccc32)C1 (stereo not shown) [Metixene hydrochloride] | Inactive | Inactive | 0.44 µM | – | – | – | – | – | CYP1A2 IC50 (half-maximal inhibitory concentration) (human CYP1A2 [2]): Inactive; CYP2C9 IC50 (half-maximal inhibitory concentration) (human CYP2C9 [3]): Inactive; IC50 (human CYP2C19 [5]; [9]): 7.76 µM
3 | CCN(CC)CCOC(=O)C(Cc1cccc2ccccc12)CC1CCCO1 (stereo not shown) [Nafronyl oxalate] | – | – | – | Inactive | Inactive | 2.98 µM | – | – | IC50 (human CYP1A2 [6]; CYP1A2 IC50): 18.2 µM; IC50 (human CYP2C19 [5]; CYP2C19 IC50): 7.76 µM
4 | CO[C@]12C[C@@H](COC(=O)c3cncc(Br)c3)CN(C)[C@@H]1Cc1cn(C)c3cccc2c13 [Nicergoline] | – | – | – | Inactive | Inactive | 0.07 µM | – | – | IC50 (human CYP1A2 [6]; CYP1A2 IC50): 22 µM; IC50 (human CYP2C19 [5]; CYP2C19 IC50): 11.8 µM
5 | CC(CN1c2ccccc2Sc2ccccc21)N(C)C (stereo not shown) [Promethazine hydrochloride] | Inactive | Inactive | 0.89 µM | – | – | – | – | – | IC50 (human CYP1A2 [6]; [10]): 2.23 µM; IC50 (human CYP2C19 [5]; [9]): 14.5 µM
6 | CCOC(=O)COc1ccc2c(c1)C[C@@H](NC[C@H](O)c1cccc(Cl)c1)CC2 [SR58611] | Inactive | Inactive | – | – | – | – | – | – | CYP1A2 IC50 (half-maximal inhibitory concentration) (human CYP1A2 [2]): Inactive; IC50 (human CYP2C9 [7]): 31 ± 4.26 µM; IC50 (human CYP2C19 [5]): 35.2 ± 8.79 µM; IC50 (human CYP2D6): 0.66 ± 0.18 µM
7 | Cc1nc2n(c(=O)c1CCN1CCC(C(=O)c3ccc(F)cc3)CC1)CCS2 [Setoperone] | – | – | – | Inactive | – | – | Inactive | Inactive | IC50 (human CYP1A2 [6]): 32.3 ± 4.12 µM; IC50 (human CYP2C9 [7]): 27.2 ± 16.6 µM; IC50 (human CYP2D6): 0.48 ± 0.08 µM
8 | O=C(CCCN1CCC2(CC1)C(=O)NCN2c1ccccc1)c1ccc(F)cc1 [Spiperone] | – | – | – | Inactive | Inactive | – | Inactive | Inactive | CYP1A2 IC50 (human CYP1A2 [2]): Inactive; IC50 (human CYP2D6; CYP2D6 IC50, mean ± standard deviation from three experiments): 0.79 ± 0.18 µM
9 | CCCC[N+](CCCC)(CCCC)CCCC [Tetrabutylammonium bromide] | – | – | – | Inactive | Inactive | 0.01 µM | Inactive | Inactive | CYP1A2 IC50 (human CYP1A2 [2]): Inactive
10 | COC1CC(=C(c2cccs2)c2cccs2)C[N+](C)(C)C1 (stereo not shown) [Timepidium bromide] | – | – | – | Inactive | Inactive | 0.29 µM | Inactive | Inactive | CYP1A2 IC50 (human CYP1A2 [2]): Inactive
11 | Oc1cc(Cl)ccc1Oc1ccc(Cl)cc1Cl [Triclosan] | – | – | – | Inactive | – | 32.8 µM | – | Inactive | IC50 (human CYP1A2 [6]; CYP1A2 IC50): 20.8 µM; IC50 (human CYP2C19 [5]; CYP2C19 IC50): 0.71 µM
12 | Cl[C@H]1[C@H](Cl)[C@@H](Cl)[C@H](Cl)[C@@H](Cl)[C@H]1Cl [delta-Hexachlorocyclohexane] | Inactive | – | 48.8 µM | – | – | – | – | – | AC50 (human CYP1A2 [6]; CYP1A2 AC50 (half-maximal activity concentration)): 35.7 µM; IC50 (human CYP1A2 [6]; [10]): 35.7 µM; AC50 (human CYP2C9 [7]; CYP2C9 AC50 (half-maximal activity concentration)): 25.6 µM; IC50 (human CYP2C9 [7]; CYP2C9 IC50 (half-maximal inhibitory concentration)): 25.6 µM; AC50 (human CYP2C19 [5]; CYP2C19 AC50 (half-maximal activity concentration)): 2.27 µM; IC50 (human CYP2C19 [5]; [9]): 2.27 µM; AC50 (human CYP2D6; CYP2D6 AC50 (half-maximal activity concentration)): 48.8 µM
13 | CN(C/C=C/C#CC(C)(C)C)Cc1cccc2ccccc12 [terbinafine, reference compound] | – | – | – | Inactive | – | – | – | – | IC50 (human CYP1A2 [6]): 16.8 µM; IC50 (human CYP2C9 [7]): 15.5 µM; IC50 (human CYP2C19 [5]): 31.9 µM; IC50 (human CYP2D6): 0.4 µM
